# Patent publication EP0745595A1, “3-(3-Aryloxyphenyl)-1-(substituted methyl)-s-triazine-2,4,6-oxo or thiotrione herbicidal agents” (American Cyanamid Company, priority 1995, dated 1996)
# Legend:
# Assay type in all cases: in vivo
# [1] = system: TRITICUM AESTIVUM, CV. APOLLO; test: Postemergence herbicidal evaluation, TRZAWO (Wheat, Winter, CV. APOLLO)
# Protocol: In the tests, seedling plants are grown in jiffy flats for about two weeks. The test compounds are dispersed in 50/50 acetone/water mixtures containing 0.5% TWEEN®20, a polyoxyethylene sorbitan monolaurate surfactant of Atlas Chemical Industries, […] through a spray nozzle operating at 40 psi for a predetermined time. After spraying, the plants are placed on greenhouse benches and are cared for in the usual manner, commensurate with conventional greenhouse practices. From four to five weeks after treatment, the seedling plants are examined and rated according to the rating system set forth below. Where more than one test is involved for a given compound, the data are averaged.
# (§1) Plant species employed in these evaluations are reported by header abbreviation, common name and scientific name.
# (§2) Results of herbicide evaluation are expressed on a rating scale (0-9). The scale is based upon a visual observation of plant stand, vigor, malformation, size, chlorosis and overall plant appearance as compared with a control.
# [2] = system: CHENOPODIUM ALBUM, L.; test: Preemergence herbicidal evaluation, CHEAL (Lambsquarters, Common); conditions: rated four to five weeks after treatment
# In short: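 Injury scored visually (0–9; stand, vigor, malformation, size, chlorosis) versus untreated control, four to five weeks post-treatment. Application: aqueous acetone spray onto freshly planted soil cups, equivalent to about 0.125 to 0.50 kg/ha, plants then kept under standard greenhouse care.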
# [3] = system: AMBROSIA ARTEMISIIFOLIA, L.; test: Postemergence herbicidal evaluation, AMBEL (Ragweed, Common)
# In short: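 Postemergence herbicidal activity on AMBEL (common ragweed) was assessed on two-week-old seedlings grown in jiffy flats. Treatment solutions of 50/50 acetone/water with 0.5% TWEEN®20 surfactant were sprayed at 40 psi. After four to five weeks in the greenhouse, plants were scored 0-9 against a control for stand, vigor, malformation, size, chlorosis and overall appearance, with multiple tests averaged.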
# [4] = system: SETARIA VIRIDIS, (L) BEAU; test: Postemergence herbicidal evaluation, SETVI (Foxtail, Green); parameters: key to SETVI rating / Herbicidal effect rating, SETVI / SETVI: 0-9 visual rating scale vs untreated control
# In short: (§3)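 Postemergence foliar spray at approximately 0.125–0.500 kg/ha onto two-week seedlings; greenhouse hold, then 0–9 visual injury rating after 4–5 weeks.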
# [5] = system: ECHINOCHLOA CRUS-GALLI, (L) BEAU; test: Postemergence herbicidal evaluation, ECHCG (Barnyardgrass); parameters: key to ECHCG rating / Herbicidal effect rating, ECHCG / ECHCG: 0-9 visual rating scale vs untreated control
# In short: as §3
# [6] = system: ORYZA SATIVA, L. TEBONNET; test: Rice tolerance to post-transplant applications under flooded paddy conditions, ORYSAT (Rice, Tebonnet); conditions: for Herbicidal effect rating, ORYSAT: 0.500 kg/ha, post-transplant rice, 3-4 weeks after treatment; for ORYSAT: post-transplanted rice
# In short: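 Greenhouse pots of silt loam, each with two transplanted ten-day-old seedlings, are held under 1.5 to 3 cm of standing water. Three days later the compound is applied to the flooded surface at about 0.5, 0.25, 0.125 or 0.063 kg/ha. Damage is scored visually 0-9 after 3-4 weeks.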
# [7] = system: ZEA MAYS L.; test: Postemergence herbicidal evaluation, ZEAMX (Corn, Field)
# Protocol: In the tests, seedling plants are grown in jiffy flats for about two weeks. The test compounds are dispersed in 50/50 acetone/water mixtures containing 0.5% TWEEN®20, a polyoxyethylene sorbitan monolaurate surfactant of Atlas Chemical Industries, […] to the plants through a spray nozzle operating at 40 psi for a predetermined time. After spraying, the plants are placed on greenhouse benches and are cared for in the usual manner, commensurate with conventional greenhouse practices. From four to five weeks after treatment, the seedling plants are examined and rated according to the rating system set forth below. Where more than one test is involved for a given compound, the data are averaged.
# as §1, §2
# [8] = system: CHENOPODIUM ALBUM, L.; test: Postemergence herbicidal evaluation, CHEAL (Lambsquarters, Common)
# In short: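 Postemergence herbicidal activity on Chenopodium album was tested by spraying two-week-old seedlings grown in jiffy flats with compound in acetone/water (50/50) plus 0.5% TWEEN®20, using a 40 psi nozzle. Four to five weeks after treatment, stand, vigor, malformation, size, chlorosis and overall appearance were scored 0-9 relative to controls, with repeat tests averaged.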
# [9] = system: CASSIA OBTUSIFOLIA, L.; test: Postemergence herbicidal evaluation, CASOB (Sicklepod); parameters: key to CASOB rating / Herbicidal effect rating, CASOB / CASOB: 0-9 visual rating scale vs untreated control
# In short: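 Spray: acetone/water 50/50 + 0.5% TWEEN 20; rate ~0.125–0.500 kg/ha; nozzle 40 psi; ~2-wk seedlings. Read: visual 0–9 rating at 4–5 wk post-treatment vs control; replicate tests averaged.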
# [10] = system: ABUTILON THEOPHRASTI, MEDIC.; test: Postemergence herbicidal evaluation, ABUTH (Velvetleaf)
# In short: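 This postemergence herbicide test used two-week-old velvetleaf seedlings grown in jiffy flats. Each compound was sprayed at 40 psi as a dispersion in 50/50 acetone/water with 0.5% TWEEN®20 surfactant. Plants then received routine greenhouse care. After four to five weeks, injury was scored visually on a 0-9 scale against a control, and replicate tests were averaged.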
# [11] = system: IPOMOEA SPP.; test: Postemergence herbicidal evaluation, IPOSS (Morningglory spp.);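 further: higher means more injury with 8 approaching complete kill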
# In short: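 In this greenhouse postemergence herbicide test on Ipomoea spp. (morningglory), compounds in 50/50 acetone/water with 0.5% TWEEN®20 were sprayed at 40 psi onto seedlings about two weeks old grown in jiffy flats. After four to five weeks, injury was scored on a 0-9 scale covering stand, vigor, malformation, size, chlorosis and overall appearance versus control, with repeat tests averaged.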
structure (smiles),measurement,setting,value
"COC(=O)Cn1c(=O)n(C)c(=O)n(-c2cc(Oc3ccc(SC)cc3Cl)ccc2[N+](=O)[O-])c1=O [Compound 34, Methyl 3-{5-[2-chloro-4-(methylthio)-phenoxy]-2-nitrophenyl}tetrahydro-5-methyl-2,4,6-trioxo-s-triazine-1(2H)-acetate]",TRZAWO rating,[1]; Rate 0.125 kg/ha,2.0
same,TRZAWO rating,[1]; Rate 0.250 kg/ha,2.0
same,TRZAWO rating,[1]; Rate 0.500 kg/ha,2.0
same,CHEAL herbicidal rating,[2]; Rate 0.125 kg/ha,0.0
same,CHEAL herbicidal rating,[2]; Rate 0.250 kg/ha,0.0
same,CHEAL herbicidal rating,[2]; Rate 0.500 kg/ha,0.0
same,AMBEL rating,[3]; Rate 0.125 kg/ha,2.0
same,AMBEL rating,[3]; Rate 0.250 kg/ha,2.0
same,AMBEL rating,[3]; Rate 0.500 kg/ha,2.0
same,SETVI rating,[4]; Rate 0.125 kg/ha,0.0
same,SETVI rating,[4]; Rate 0.250 kg/ha,0.0
same,SETVI rating,[4]; Rate 0.500 kg/ha,0.0
same,ECHCG rating,[5]; Rate 0.125 kg/ha,0.0
same,ECHCG rating,[5]; Rate 0.250 kg/ha,0.0
same,ECHCG rating,[5]; Rate 0.500 kg/ha,0.0
same,"Herbicidal effect rating, ORYSAT",[6],0.0
"Cn1c(=O)[nH]c(=O)n(-c2cccc(Oc3ccc(C(F)(F)F)cc3Cl)c2)c1=O [E, reference compound]",TRZAWO,[1]; Rate 0.063 kg/ha,1.0
same,TRZAWO,[1]; Rate 0.125 kg/ha,1.0
same,TRZAWO,[1]; Rate 0.250 kg/ha,1.0
same,TRZAWO,[1]; Rate 0.500 kg/ha,1.5
same,ZEAMX,[7]; Rate 0.063 kg/ha,1.5
same,ZEAMX,[7]; Rate 0.125 kg/ha,1.5
same,ZEAMX,[7]; Rate 0.250 kg/ha,1.5
same,ZEAMX,[7]; Rate 0.500 kg/ha,2.5
same,AMBEL,[3]; Rate 0.063 kg/ha,2.0
same,AMBEL,[3]; Rate 0.125 kg/ha,2.0
same,AMBEL,[3]; Rate 0.250 kg/ha,4.0
same,AMBEL,[3]; Rate 0.500 kg/ha,5.0
same,CHEAL,[8]; Rate 0.063 kg/ha,7.0
same,CHEAL,[8]; Rate 0.125 kg/ha,7.0
same,CHEAL,[8]; Rate 0.250 kg/ha,8.0
same,CHEAL,[8]; Rate 0.500 kg/ha,8.0
same,SETVI,[4]; Rate 0.063 kg/ha,0.0
same,SETVI,[4]; Rate 0.125 kg/ha,0.0
same,SETVI,[4]; Rate 0.250 kg/ha,1.0
same,SETVI,[4]; Rate 0.500 kg/ha,2.0
same,ECHCG,[5]; Rate 0.063 kg/ha,0.0
same,ECHCG,[5]; Rate 0.125 kg/ha,0.0
same,ECHCG,[5]; Rate 0.250 kg/ha,1.0
same,ECHCG,[5]; Rate 0.500 kg/ha,3.0
same,ORYSAT,[6]; Rate 0.250 kg/ha,0.0
same,ORYSAT,[6]; Rate 0.500 kg/ha,0.0
same,ORYSAT,[6]; Rate 1.000 kg/ha,0.0
same,CASOB,[9]; Rate 0.063 kg/ha,2.0
same,CASOB,[9]; Rate 0.125 kg/ha,3.0
same,CASOB,[9]; Rate 0.250 kg/ha,5.0
same,CASOB,[9]; Rate 0.500 kg/ha,2.0
same,ABUTH,[10]; Rate 0.063 kg/ha,4.0
same,ABUTH,[10]; Rate 0.125 kg/ha,5.0
same,ABUTH,[10]; Rate 0.250 kg/ha,5.0
same,ABUTH,[10]; Rate 0.500 kg/ha,6.0
same,IPOSS,[11]; Rate 0.063 kg/ha,5.0
same,IPOSS,[11]; Rate 0.125 kg/ha,5.0
same,IPOSS,[11]; Rate 0.250 kg/ha,5.0
same,IPOSS,[11]; Rate 0.500 kg/ha,6.0
"COC(=O)Cn1c(=O)n(C)c(=O)n(-c2cc(Oc3cc(Cl)cc(Cl)c3)ccc2[N+](=O)[O-])c1=O [Compound 35, Methyl 3-[5-(3,5-dichlorophenoxy)-2-nitrophenyl]tetrahydro-5-methyl-2,4,6-trioxo-s-triazine-1(2H)-acetate]",TRZAWO rating,[1]; Rate 0.125 kg/ha,0.0
same,TRZAWO rating,[1]; Rate 0.250 kg/ha,0.0
same,TRZAWO rating,[1]; Rate 0.500 kg/ha,0.0
same,ZEAMX rating,[7]; Rate 0.125 kg/ha,1.0
same,ZEAMX rating,[7]; Rate 0.250 kg/ha,1.0
same,ZEAMX rating,[7]; Rate 0.500 kg/ha,1.0
same,CHEAL herbicidal rating,[2]; Rate 0.500 kg/ha,0.0
same,AMBEL rating,[3]; Rate 0.125 kg/ha,0.0
same,AMBEL rating,[3]; Rate 0.250 kg/ha,0.0
same,AMBEL rating,[3]; Rate 0.500 kg/ha,0.0
same,CHEAL rating,[8]; Rate 0.125 kg/ha,0.0
same,CHEAL rating,[8]; Rate 0.250 kg/ha,0.0
same,CHEAL rating,[8]; Rate 0.500 kg/ha,0.0
same,SETVI rating,[4]; Rate 0.125 kg/ha,0.0
same,SETVI rating,[4]; Rate 0.250 kg/ha,0.0
same,SETVI rating,[4]; Rate 0.500 kg/ha,0.0
same,ECHCG rating,[5]; Rate 0.125 kg/ha,0.0
same,ECHCG rating,[5]; Rate 0.250 kg/ha,0.0
same,ECHCG rating,[5]; Rate 0.500 kg/ha,0.0
same,"Herbicidal effect rating, ORYSAT",[6],0.0
same,CASOB rating,[9]; Rate 0.125 kg/ha,0.0
same,CASOB rating,[9]; Rate 0.250 kg/ha,0.0
same,CASOB rating,[9]; Rate 0.500 kg/ha,0.0
same,ABUTH rating,[10]; Rate 0.125 kg/ha,0.0
same,ABUTH rating,[10]; Rate 0.250 kg/ha,0.0
same,ABUTH rating,[10]; Rate 0.500 kg/ha,0.0
